According to article PMC6046546, “Gossypol Inhibits Non-small Cell Lung Cancer Cells Proliferation by Targeting EGFR^L858R/T790M” (Frontiers in Pharmacology, 2018):

Columns and labels:
EGFR^L858R/T790M = molecular target: T1, EGFR^L858R/T790M (Homo sapiens, UniProt P00533, L858R/T790M); assay: ELISA kinase activity assay, recombinant kinase, poly(Glu,Tyr) […] substrate, […] ATP; type: biochemical
T1 construct: kinase domain

EGFR^WT = EGFR^WT (Homo sapiens, UniProt P00533); assay: ELISA kinase activity assay, poly(Glu,Tyr) […] substrate, […] ATP; type: biochemical
Chain of EGFR^WT (P00533 25-1210): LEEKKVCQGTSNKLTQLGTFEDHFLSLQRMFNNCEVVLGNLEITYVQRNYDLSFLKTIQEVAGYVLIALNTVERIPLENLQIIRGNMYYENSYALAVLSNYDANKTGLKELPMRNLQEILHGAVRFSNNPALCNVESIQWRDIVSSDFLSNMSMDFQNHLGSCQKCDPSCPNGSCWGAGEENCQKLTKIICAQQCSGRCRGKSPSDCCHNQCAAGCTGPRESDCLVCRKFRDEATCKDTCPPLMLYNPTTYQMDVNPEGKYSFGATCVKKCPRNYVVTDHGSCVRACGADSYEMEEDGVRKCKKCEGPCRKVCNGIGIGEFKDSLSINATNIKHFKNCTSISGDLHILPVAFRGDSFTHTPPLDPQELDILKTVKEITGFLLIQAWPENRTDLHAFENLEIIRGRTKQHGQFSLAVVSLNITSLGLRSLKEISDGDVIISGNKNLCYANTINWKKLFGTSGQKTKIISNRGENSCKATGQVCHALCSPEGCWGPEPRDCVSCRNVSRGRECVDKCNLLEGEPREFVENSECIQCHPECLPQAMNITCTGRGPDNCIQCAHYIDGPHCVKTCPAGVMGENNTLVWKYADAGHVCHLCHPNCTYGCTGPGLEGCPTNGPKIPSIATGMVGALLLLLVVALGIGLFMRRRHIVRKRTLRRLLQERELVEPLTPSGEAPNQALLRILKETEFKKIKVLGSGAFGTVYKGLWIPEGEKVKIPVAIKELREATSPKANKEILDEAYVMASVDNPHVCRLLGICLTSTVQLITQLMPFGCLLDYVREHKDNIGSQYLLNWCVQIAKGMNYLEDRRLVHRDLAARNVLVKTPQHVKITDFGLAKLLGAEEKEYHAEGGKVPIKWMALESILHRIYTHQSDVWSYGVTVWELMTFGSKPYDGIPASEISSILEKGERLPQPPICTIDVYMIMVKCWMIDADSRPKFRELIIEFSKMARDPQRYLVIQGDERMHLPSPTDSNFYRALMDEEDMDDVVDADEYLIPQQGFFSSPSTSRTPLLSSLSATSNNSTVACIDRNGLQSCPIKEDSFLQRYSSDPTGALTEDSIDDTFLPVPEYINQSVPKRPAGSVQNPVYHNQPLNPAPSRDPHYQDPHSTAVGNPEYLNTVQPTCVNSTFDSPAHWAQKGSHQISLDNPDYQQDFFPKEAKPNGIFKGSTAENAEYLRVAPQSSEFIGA

T1 sequence (P00533 696-1022 T790M/L858R limits assumed): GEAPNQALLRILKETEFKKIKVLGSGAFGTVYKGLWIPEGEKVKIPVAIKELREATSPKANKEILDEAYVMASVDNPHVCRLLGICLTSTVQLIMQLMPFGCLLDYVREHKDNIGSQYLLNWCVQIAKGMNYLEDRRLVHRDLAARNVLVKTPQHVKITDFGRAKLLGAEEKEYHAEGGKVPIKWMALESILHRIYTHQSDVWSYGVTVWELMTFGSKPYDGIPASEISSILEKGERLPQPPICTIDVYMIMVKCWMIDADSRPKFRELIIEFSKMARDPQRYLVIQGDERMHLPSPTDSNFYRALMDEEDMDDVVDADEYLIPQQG

Cc1cc2c(C(C)C)c(O)c(O)c(C=O)c2c(O)c1-c1c(C)cc2c(C(C)C)c(O)c(O)c(C=O)c2c1O [gossypol]
EC50 (EGFR^L858R/T790M): 0.15 ± 0.0307 µM
EC50 (EGFR^WT): 0.253 ± 0.0269 µM
